Measured values taken from paper PMC3795266, “Nitrogen Oxyanion-dependent Dissociation of a Two-component Complex That Regulates Bacterial Nitrate Assimilation” (The Journal of Biological Chemistry, 2013).

Experiments:
NasS-NasT = target: T1, NasS-NasT (Paracoccus denitrificans, UniProt A1BAH4); experiment: intrinsic tryptophan fluorescence quench (ex […] nm, em […] nm); assay type: binding; conditions: read-out: KD^app
T1 construct: gene Pden_4454; co-expressed from pET-24a/nasTS in E. coli BL21(DE3); N-terminal His6-tag on NasT (tag kept), NasS untagged; NasS ~42 kDa, NasT ~22 kDa; heterotetramer ~132 kDa (two NasS, two NasT); with Response regulator NasT, ANTAR domain-containing positive regulator
T1 sequence (A1BAH4 1-390): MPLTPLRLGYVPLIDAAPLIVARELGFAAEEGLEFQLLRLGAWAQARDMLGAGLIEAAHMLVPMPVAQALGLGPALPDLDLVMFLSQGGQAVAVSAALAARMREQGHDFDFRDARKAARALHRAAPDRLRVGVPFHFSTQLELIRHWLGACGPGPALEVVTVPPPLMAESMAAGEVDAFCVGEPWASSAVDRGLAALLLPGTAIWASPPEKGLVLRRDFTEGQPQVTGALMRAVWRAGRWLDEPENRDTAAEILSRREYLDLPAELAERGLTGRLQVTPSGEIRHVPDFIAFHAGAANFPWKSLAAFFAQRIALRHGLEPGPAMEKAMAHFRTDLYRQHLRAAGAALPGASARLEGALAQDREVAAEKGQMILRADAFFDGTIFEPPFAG
T1 sequence (A1BAH5 1-196 partner): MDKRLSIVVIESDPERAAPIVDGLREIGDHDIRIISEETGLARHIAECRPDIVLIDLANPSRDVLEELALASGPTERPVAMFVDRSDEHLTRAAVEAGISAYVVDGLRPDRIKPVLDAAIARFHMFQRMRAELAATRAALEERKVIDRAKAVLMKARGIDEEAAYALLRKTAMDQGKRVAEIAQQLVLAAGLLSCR

[1] = target: NasT (His-tagged recombinant P. denitrificans NasT) (Paracoccus denitrificans PD1222); experiment: AUC; sedimentation equilibrium of the purified complex, no NO3-; 50 mM NaHEPES, 100 mM NaCl, pH 7.5; 7.5, 12 and 16 krpm; 10 uM protein; ideal one-component fit
[2] = target: NasT (His-tagged recombinant P. denitrificans NasT) (Paracoccus denitrificans PD1222); experiment: SEC; analytical Superdex 200 HR 10/30, equilibration buffer supplemented with 1 mM NO3-; fractions analysed by SDS-PAGE

Molecule	Kd (NasS-NasT) [µM]	further results
O=[N+]([O-])O [NO3^−]	15 ± 2	–
NasS (recombinant P. denitrificans NasS) (natural protein)	–	stoichiometry N (NasS per NasT (2:2)) [1]: 1
NasT (His-tagged recombinant P. denitrificans NasT) (natural protein)	–	stoichiometry N [2]: 6 monomers
O=NO [NO2^−]	94 ± 12	–
